Experiments:
[1] = biological target: T1, Id1-E47 interaction (Homo sapiens, UniProt P41134); experiment: Gel shift assay: E47 binding to MCK E-box oligonucleotide in the presence of Id1; assay type: biochemical
T1 sequence (P41134 1-155): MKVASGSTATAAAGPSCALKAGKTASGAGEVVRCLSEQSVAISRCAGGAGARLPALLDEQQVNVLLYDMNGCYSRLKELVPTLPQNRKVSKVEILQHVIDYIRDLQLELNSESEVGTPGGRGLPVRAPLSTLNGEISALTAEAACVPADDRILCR
Procedure: Gel shift assays were performed using the 376 small molecules identified in the in silico drug screen and peptide synthesis. The identified compounds were then dissolved in 5% DMSO to a concentration of 100 μm and reacted in binding mixtures that contained E47, Id1 and Mck. As controls, recombinant human E47 was used in a standard binding reaction that contained ^32P labeled MCK double stranded oligonucleotides containing consensus E-Box response element (MCK-5′ TTGATCCCCCCAACACCTGCTGCCTGAAGCT (SEQ ID NO. 1)) and 100 ng of Id1 was added to a standard binding reaction using E47 and p32 labeled MCK. After 30 minutes of incubation, the reaction mixtures were resolved on a 5% non-denaturing polyacrylamide gel and autoradiographed.

[2] = tested on: DU145 cells; experiment: Cell survival/morphology by microscopy, DU145 prostate cancer cells; assay type: cell-based, human; details: concentration of 1 um (FIG. 6)
Procedure: Prostate cancer cell lines DU145 and PC3 (in 10% BCS) were obtained from American Type Culture Collection (Rockville, Md.). The cells were cultured in Ham's F12 (Gibco, Carlsbad, Calif.) medium containing 10% BCS (Hyclone, Logan, Utah) and appropriate antibiotics (pen/strep, fungizaone, and gentamycin (Invitrogen Inc., Carlsbad, Calif.). All cells were cultured at 37° C. in a fully humidified atmosphere containing 5% CO2.
At 50% confluence, the cells were treated with either 100 μM DMSO, 1000 mOsmol of urea+NaCL, 1 μM N-[3-(1,3-benzodioxol-5-yl)-3-(2-methoxyphenyl)propyl]-N-benzylpropanamide, 10 μM N-[3-(1,3-benzodioxol-5-yl)-3-(2-methoxyphenyl)propyl]-N-benzylpropanamide, and 100 μM N-[3-(1,3-benzodioxol-5-yl)-3-(2-methoxyphenyl)propyl]-N-benzylpropanamide, 1 μM N′-(4-isopropylphenyl)-1-benzothiophene-2-carbohydrazide, 10 μM N′-(4-isopropylphenyl)-1-benzothiophene-2-carbohydrazide, or 100 μM N′-(4-isopropylphenyl)-1-benzothiophene-2-carbohydrazide. The cell morphology and growth was monitored daily for 1 week by microscopy for changes in morphology or cell death. Apoptosis was determined by measuring caspase 3 and caspase 7 activities using the Caspase-Glo 3/7 Assay system from Promega (Madison, Wis.).

CC(C)c1ccc(NNC(=O)c2cc3ccccc3s2)cc1 [N′-(4-isopropylphenyl)-1-benzothiophene-2-carbohydrazide]
dose dependence of effect in the gel shift assay [1]: dose-proportionality | anti-Id activity in the gel shift assay (shifted band of bound E47-MCK in the presence of Id1) ([1]; compound 100 μm in 5% DMSO, E47, Id1 and MCK, 30 minutes): restore the binding between E47-MCK in the presence of Id1 | survival of DU145 cells [2]: able to induce cell death

Reference: patent US8138356B2, “Chemical inhibitors of inhibitors of differentiation” (Angiogeney, Inc., priority 2008, dated 2012)
